Patent US6946483B2, “Aminoalkenylbenzoyl-benzofuran or benzothiophene, method for preparing same and compositions containing same” (Sanofi-Aventis, priority 2000, dated 2005)
Counter-ions that a name gives are not always drawn.

Row | Structure (SMILES) | melting point [°C]
1 | CCCCNCC#Cc1ccc(C(=O)c2c(CCCC)oc3ccc(C(=O)OC(C)C)cc23)cc1 (as salt: hydrochloride) [Example 36] | 166 to 167
2 | CCCCc1oc2ccc(C(=O)OC)cc2c1C(=O)c1ccc(C#CCN2CCCCC2)cc1 (as salt: hydrochloride) [Example 34] | 153 to 154
3 | CCCCc1oc2cc(C(=O)OC(C)C)ccc2c1C(=O)c1ccc(/C=C/CN(CCCC)CCCC)cc1 (as salt: hydrochloride) [Example 38] | 110 to 114
4 | CCCCN(C/C=C/c1ccc(C(=O)c2c(C)oc3ccc(C(=O)OC(C)C)cc23)cc1)CCCC (as salt: hydrochloride) [Example 50] | 189 to 191
5 | CCCCc1oc2c(C(=O)OC(C)C)cccc2c1C(=O)c1ccc(/C=C/CN(CCCC)CCCC)cc1 (as salt: oxalate) [Example 52] | 120
6 | CCCCc1oc2ccc(C(=O)OC(C)C)cc2c1C(=O)c1cc(C)c(/C=C/CN(CCCC)CCCC)c(C)c1 (as salt: oxalate) [Example 44] | 110 to 115
7 | CCCCN(C/C=C/c1ccc(C(=O)c2c(CC(C)C)oc3ccc(C(=O)OC(C)C)cc23)cc1)CCCC (as salt: hydrochloride) [Example 40] | 147 to 150
8 | CCCCN(C/C=C/c1ccc(C(=O)c2c(C3CCCCC3)oc3ccc(C(=O)OC(C)C)cc23)cc1)CCCC (as salt: hydrochloride) [Example 43] | 171 to 173
9 | CCCCc1oc2cc(C)c(C(=O)OC(C)C)cc2c1C(=O)c1ccc(/C=C\CN(CCCC)CCCC)cc1.Cl | 129
10 | CCCCc1oc2ccc(C(=O)OC(C)C)cc2c1C(=O)c1cc(Cl)c(/C=C/CN(CCCC)CCCC)c(Cl)c1 (as salt: oxalate) [Example 51] | 91 to 93
11 | CCCCc1oc2ccc(C(=O)OC(C)C)cc2c1C(=O)c1ccc(/C=C/CN(CCCC)CCCC)cc1 (as salt: oxalate) [Example 39] | 112
